In patent US7528138B2, “Pyrazolo[1,5-a]pyrimidines useful as inhibitors of protein kinases” (Vertex Pharmaceuticals Incorporated, priority 2004, dated 2009):

Key:
Assay type in all cases: biochemical
Itk = biological target: T1, Itk (Homo sapiens, UniProt Q08881); test: ITK Inhibition Assay (Radiometric), radioactive-phosphate incorporation; conditions: enzyme inhibition data (Ki), Table 11; radiometric or UV assay not stated
T1 sequence (Q08881 1-620): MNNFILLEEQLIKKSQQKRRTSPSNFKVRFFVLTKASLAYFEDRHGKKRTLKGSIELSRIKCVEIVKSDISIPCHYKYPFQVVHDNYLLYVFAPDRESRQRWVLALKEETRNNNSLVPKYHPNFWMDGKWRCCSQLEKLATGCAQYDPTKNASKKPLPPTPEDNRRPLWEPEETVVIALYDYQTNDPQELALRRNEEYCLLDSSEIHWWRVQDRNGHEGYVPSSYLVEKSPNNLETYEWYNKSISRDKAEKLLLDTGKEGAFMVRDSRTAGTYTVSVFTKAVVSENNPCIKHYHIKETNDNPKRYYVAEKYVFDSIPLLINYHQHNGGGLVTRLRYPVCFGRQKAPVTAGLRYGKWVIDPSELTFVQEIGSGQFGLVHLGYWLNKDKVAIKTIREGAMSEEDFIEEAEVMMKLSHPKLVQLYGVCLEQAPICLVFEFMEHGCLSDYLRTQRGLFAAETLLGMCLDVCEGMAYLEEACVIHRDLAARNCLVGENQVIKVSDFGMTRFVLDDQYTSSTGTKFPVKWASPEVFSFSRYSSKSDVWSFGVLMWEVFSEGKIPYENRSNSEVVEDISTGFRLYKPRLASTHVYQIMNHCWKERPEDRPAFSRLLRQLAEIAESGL
Method in brief: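 Radiometric 33P incorporation into SAM68 peptide (D332-443) with filter capture and scintillation counting; 10 min pre-incubation then 10 min reaction at 25° C. IC50 format: 30 nM Itk, 15 μM ATP, 2 μM peptide, HEPES pH 7.5. Ki(app) format: 50 nM Itk, 7.5 μM ATP, 3 μM peptide, MOPS pH 7.0.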

Aurora-2 = biological target: T2, Aurora-2 (Homo sapiens, UniProt O14965); test: Aurora-A (Aurora-2) Inhibition Assay, coupled enzyme assay; conditions: enzyme inhibition data (Ki), Table 11; read-out: AurA Ki
T2 sequence (O14965 1-403): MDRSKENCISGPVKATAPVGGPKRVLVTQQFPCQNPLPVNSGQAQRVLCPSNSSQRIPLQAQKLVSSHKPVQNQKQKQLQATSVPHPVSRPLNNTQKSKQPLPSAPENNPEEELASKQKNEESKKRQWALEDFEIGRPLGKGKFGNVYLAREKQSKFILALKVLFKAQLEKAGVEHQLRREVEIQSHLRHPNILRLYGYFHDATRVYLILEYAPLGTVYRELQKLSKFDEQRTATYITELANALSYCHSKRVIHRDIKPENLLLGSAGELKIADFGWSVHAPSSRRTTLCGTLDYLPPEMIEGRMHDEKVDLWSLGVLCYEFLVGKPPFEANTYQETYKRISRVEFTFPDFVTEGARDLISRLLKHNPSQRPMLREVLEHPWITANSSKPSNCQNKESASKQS
Method: Compounds are screened for their ability to inhibit Aurora-2 using a standard coupled enzyme assay (Fox et al., Protein Sci., (1998) 7, 2249). Assays are carried out in a mixture of 100 mM Hepes (pH7.5), 10 mM MgCl2, 1 mM DTT, 25 mM NaCl, 2.5 mM phosphoenolpyruvate, 300 μM NADH, 30 μg/ml pyruvate kinase and 10 μg/ml lactate dehydrogenase. Final substrate concentrations in the assay are 400 μM ATP (Sigma Chemicals) and 570 μM peptide (Kemptide, American Peptide, Sunnyvale, Calif.). Assays are carried out at 30° C. and in the presence of 40 nM Aurora-2.
An assay stock buffer solution is prepared containing all of the reagents listed above, with the exception of Aurora-2 and the test compound of interest. 55 μl of the stock solution is placed in a 96 well plate followed by addition of 2 μl of DMSO stock containing serial dilutions of the test compound (typically starting from a final concentration of 7.5 μM). The plate is preincubated for 10 minutes at 30° C. and the reaction initiated by addition of 10 μl of Aurora-2. Initial reaction rates are determined with a Molecular Devices SpectraMax Plus plate reader over a 10 minute time course. IC50 and Ki data are calculated from non-linear regression analysis using the Prism software package (GraphPad Prism version 3.0cx for Macintosh, GraphPad Software, San Diego Calif., USA).

c-Met = c-Met (Homo sapiens, UniProt P08581); test: c-Met Inhibition Assay, coupled enzyme system; conditions: enzyme inhibition data (Ki), Table 11
Method in brief: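 Pyruvate kinase/lactate dehydrogenase-coupled NADH assay in HEPES pH 7.5 with 80 nM c-Met, 200 μM ATP and 10 μM polyGluTyr at 30° C. Compound (0.006–12.5 μM final, 12-point) preincubated 10 min before ATP start; rates over 10 min gave Ki.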

JAK3 = biological target: T3, JAK3 (Homo sapiens, UniProt P52333); test: JAK3 Inhibition Assay, 33P incorporation; conditions: enzyme inhibition data (Ki), Table 11
T3 sequence (P52333 1-1124): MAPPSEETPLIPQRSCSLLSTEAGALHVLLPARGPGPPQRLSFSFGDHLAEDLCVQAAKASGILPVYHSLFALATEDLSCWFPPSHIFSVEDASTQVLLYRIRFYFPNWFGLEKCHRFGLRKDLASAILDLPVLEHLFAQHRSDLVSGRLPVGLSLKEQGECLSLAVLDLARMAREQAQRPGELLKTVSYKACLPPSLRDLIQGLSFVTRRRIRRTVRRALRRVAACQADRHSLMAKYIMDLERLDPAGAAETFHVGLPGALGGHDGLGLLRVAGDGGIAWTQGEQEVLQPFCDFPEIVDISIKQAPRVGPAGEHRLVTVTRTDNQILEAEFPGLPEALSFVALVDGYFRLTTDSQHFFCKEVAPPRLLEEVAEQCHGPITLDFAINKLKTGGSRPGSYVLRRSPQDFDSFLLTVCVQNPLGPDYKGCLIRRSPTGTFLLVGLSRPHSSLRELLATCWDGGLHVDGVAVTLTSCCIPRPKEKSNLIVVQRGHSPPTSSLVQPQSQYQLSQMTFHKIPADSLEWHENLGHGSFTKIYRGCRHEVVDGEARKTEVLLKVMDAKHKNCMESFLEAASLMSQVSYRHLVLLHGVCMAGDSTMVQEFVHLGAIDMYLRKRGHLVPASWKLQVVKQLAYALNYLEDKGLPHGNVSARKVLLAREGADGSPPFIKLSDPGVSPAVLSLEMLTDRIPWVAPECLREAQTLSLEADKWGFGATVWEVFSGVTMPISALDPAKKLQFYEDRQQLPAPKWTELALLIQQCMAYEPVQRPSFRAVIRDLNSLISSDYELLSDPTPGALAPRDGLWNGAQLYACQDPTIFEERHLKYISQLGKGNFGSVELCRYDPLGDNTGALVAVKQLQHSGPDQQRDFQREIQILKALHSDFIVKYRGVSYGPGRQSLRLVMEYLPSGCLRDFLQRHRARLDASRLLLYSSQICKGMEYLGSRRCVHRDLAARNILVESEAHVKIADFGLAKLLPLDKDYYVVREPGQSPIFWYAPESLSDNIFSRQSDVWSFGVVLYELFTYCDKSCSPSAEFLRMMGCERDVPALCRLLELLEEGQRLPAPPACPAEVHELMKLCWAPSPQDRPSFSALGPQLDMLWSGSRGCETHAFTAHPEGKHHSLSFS
Method in brief: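 33P incorporation into 1 μM poly(Glu)4Tyr was counted after TCA stop and glass fiber filtration. The 20 min reaction ran at 25 °C with 1 nM JAK3 and 5 μM ATP (200 uCi/μmole). Buffer was 100 mM HEPES pH 7.4, 10 mM MgCl2, 25 mM NaCl, 1 mM DTT, 0.01% BSA.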

Chain of c-Met (P08581 25-1390): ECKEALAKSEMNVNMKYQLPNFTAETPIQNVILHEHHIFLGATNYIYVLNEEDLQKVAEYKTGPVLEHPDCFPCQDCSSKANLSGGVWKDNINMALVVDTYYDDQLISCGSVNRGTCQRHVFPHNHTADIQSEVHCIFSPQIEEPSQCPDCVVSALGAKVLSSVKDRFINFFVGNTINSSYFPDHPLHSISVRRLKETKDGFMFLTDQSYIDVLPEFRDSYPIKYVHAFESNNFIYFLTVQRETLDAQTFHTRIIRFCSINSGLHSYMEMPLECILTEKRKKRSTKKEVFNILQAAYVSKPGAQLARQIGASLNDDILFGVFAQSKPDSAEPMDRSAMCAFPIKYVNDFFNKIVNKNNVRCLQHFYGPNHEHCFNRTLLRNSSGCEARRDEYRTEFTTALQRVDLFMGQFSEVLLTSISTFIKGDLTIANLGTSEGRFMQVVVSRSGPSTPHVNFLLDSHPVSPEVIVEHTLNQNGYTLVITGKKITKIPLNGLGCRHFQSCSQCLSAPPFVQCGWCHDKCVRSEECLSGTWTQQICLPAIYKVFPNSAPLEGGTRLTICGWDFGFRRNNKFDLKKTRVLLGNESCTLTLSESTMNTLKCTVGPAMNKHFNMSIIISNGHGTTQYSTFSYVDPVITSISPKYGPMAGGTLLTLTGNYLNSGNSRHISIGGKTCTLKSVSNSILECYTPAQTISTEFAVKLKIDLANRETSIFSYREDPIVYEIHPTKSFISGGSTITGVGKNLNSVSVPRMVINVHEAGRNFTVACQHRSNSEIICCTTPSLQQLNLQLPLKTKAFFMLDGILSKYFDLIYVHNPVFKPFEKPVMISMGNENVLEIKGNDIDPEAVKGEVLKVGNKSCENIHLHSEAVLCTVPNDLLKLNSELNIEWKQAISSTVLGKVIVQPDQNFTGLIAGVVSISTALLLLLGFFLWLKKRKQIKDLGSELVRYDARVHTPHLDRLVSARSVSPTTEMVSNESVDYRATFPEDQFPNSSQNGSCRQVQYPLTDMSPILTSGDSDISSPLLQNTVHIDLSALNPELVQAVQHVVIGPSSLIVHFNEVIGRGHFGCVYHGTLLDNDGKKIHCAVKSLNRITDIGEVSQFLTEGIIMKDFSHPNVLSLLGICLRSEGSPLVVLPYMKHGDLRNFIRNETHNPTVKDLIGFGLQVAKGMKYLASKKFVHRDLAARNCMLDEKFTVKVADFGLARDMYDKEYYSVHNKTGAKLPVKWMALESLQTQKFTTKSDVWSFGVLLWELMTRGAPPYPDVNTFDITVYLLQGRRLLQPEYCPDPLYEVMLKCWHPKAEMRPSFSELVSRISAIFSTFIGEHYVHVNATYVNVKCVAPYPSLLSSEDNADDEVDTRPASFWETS

Row | Compound | Ki (Itk) | Ki (Aurora-2) | Ki (c-Met) | Ki (JAK3)
1 | Nc1nn2cc(-c3ccc(CN4CCCNCC4)cc3)cnc2c1-c1ccccn1 [Compound V-224] | < 500 nM | < 500 nM | < 500 nM | –
2 | CC(C)(C)OC(=O)NCc1ccc(-c2cnc3c(-c4ccccn4)c(N)nn3c2)cc1 [Compound V-192] | < 500 nM | < 500 nM | – | –
3 | CCN(CCN)C(=O)c1cccc(-c2cnc3c(-c4ccccn4)c(N)nn3c2)n1 [Compound V-126] | 500 to 5000 nM | – | < 500 nM | > 5000 nM
4 | Cc1cnc2c(-c3cc(N[C@@H](C)C(C)C)ncn3)c(N)nn2c1 [Compound V-296] | < 500 nM | – | < 500 nM | 500 to 5000 nM
5 | COc1ccc(-c2cnc3c(N)c(N)nn3c2)cc1 [Compound V-240] | 500 to 5000 nM | – | 500 to 5000 nM | > 5000 nM
6 | Nc1nn2cc(C(=O)NCCc3ccccc3)cnc2c1-c1ccccn1 [Compound V-198] | 500 to 5000 nM | – | 500 to 5000 nM | > 5000 nM
7 | Nc1nn2cc(-c3cncnc3)cnc2c1-c1ccccn1 [Compound V-52] | 500 to 5000 nM | – | 500 to 5000 nM | > 5000 nM
8 | C[C@@H](CO)NCCCc1cnc2c(-c3ccccn3)c(N)nn2c1 [Compound V-326] | 500 to 5000 nM | – | 500 to 5000 nM | > 5000 nM
